US20210260051A1, “COMBINATION OF EZH2 INHIBITOR AND CHECKPOINT THERAPY FOR THE TREATMENT OF CANCER” (Board of Regents, The University of Texas System, priority 2018, published 2021)

How the values were obtained:
MB49 tumor = assay: MB49 tumor-bearing Rag1-/- mice; type: in vivo, mouse; settings: compared with the untreated group
Text: FIGS. 3A-3F: Blocking expression of EZH2 mediated by anti-CTLA-4 using CPI-1205 increases the effectiveness of anti-CTLA-4 therapy. Tumor growth (FIG. 3A), survival (FIG. 3B) and percentages of intra-tumoral CD4^+CD25^+FoxP3^+ regulatory T cells, CD4^+ICOS^+T-bet^+ and CD8^+IFNγ^+ cells (FIG. 3C) in MB49 tumor-bearing mice treated with vehicle, anti CTLA-4, CPI-1205, or the combination. Tumor growth (FIG. 3D) and percentages of CD4^+IFNγ^+ cells and CD8^+TNFα^+ cells in the lymph nodes (LN) (FIG. 3E) of MB49 tumor-bearing Ezh2^fl/+ and FoxP3^CreEzh2^fl/fl mice treated with anti-CTLA-4 on days 7 and 9. (FIG. 3F) Tumor growth and survival of MB49 tumor-bearing Rag-1^−/− mice treated with vehicle or CPI-1205. Data are representative of three independent experiments (n=10 in each group; one-way ANOVA was used to determine significance between the groups. **p<0.01).
To determine whether the anti-tumoral effect of combination therapy is exclusively due to effector immune response or is an additive effect of CPI-1205 on tumor cells, Rag 1^−/− C57BL/6 mice were used, which have no mature lymphocyte population. MB49 tumor-bearing Ragl^−/− mice were treated with CPI-1205.
Mice. C57BL/6 (5-7 weeks) mice were purchased from the National Cancer Institute (Frederick, Md.). […]

[1] = test system: GFP+FoxP3+ regulatory T cells (iTregs); assay: RNA sequencing of GFP+FoxP3+ regulatory T cells differentiated with CPI-1205 or DMSO; type: cell-based, mouse; settings: CPI-1205 vs DMSO
Text: FIGS. 5A-5C: Naïve T cells from FoxP3enhanced green fluorescent protein (eGFP) C57BL/6 mice that were differentiated into iTregs in the presence or absence of CPI-1205. GFP^+FoxP3^+ regulatory T cells were subsequently used for RNA sequencing analysis. (FIG. 5A) Ingenuity Pathway Analysis of RNA sequencing data of regulatory T cells differentiated in the presence of DMSO or CPI-1205. (FIG. 5B) Differentially expressed genes (DEGs) seen following differentiation of inducible regulatory T cells in presence of CPI-1205 or DMSO. (FIG. 5C) Luminex-based cytokine analysis of culture supernatant from inducible regulatory T cells following differentiation with CPI-1205 or DMSO. 2 tailed student t test was used to determine significance; NS, not significant. **p<0.01.
To understand CPI-1205-mediated molecular changes underlying the loss of suppressive activity of regulatory T cells, naïve murine T cells (CD4^+CD25^low CD44^low CD62^hi) from FoxP3-enhanced green fluorescent protein (eGFP) C57BL/6 mice were differentiated into iTregs in the presence or absence of CPI-1205. Purified GFP^+FoxP3^+ regulatory T cells were subsequently used for RNA sequencing analysis. […] The cytokine levels were subsequently examined in the culture supernatant of the iTregs that were differentiated with and without CPI-1205. […] CPI-1205 can also skew the phenotype of iTregs to pro-inflammatory cytokine producing effector-like T cells. In the study, it was noted that EZH2 inhibition leads to decreased expression of not only FoxP3 but also other critical genes, such as NRP1 and BACH2, which are required for regulatory T cell stability (16-18). CPI-1205 treated regulatory T cells seem to acquire the phenotype of so called “exFoxP3” cells which was previously shown to have an activated memory phenotype (Zhou et al., 2009).
In vitro T cell assays. Human peripheral regulatory T cells were isolated from peripheral blood mononuclear cells by enriching for CD4^+CD127^low CD25^+ cells using the EasySep Human Regulatory T Cell Isolation Kit (STEMCELL Technologies, Cambridge, Mass.). For mouse in vitro regulatory T cell differentiation, CD4^+CD25^low CD44^low CD62L^hinaïve splenic T cells were isolated from C57BL/6 mice using BD FACSAria (BD Biosciences, San Jose, Calif.). The cells were then differentiated in the presence of recombinant murine IL-2 (R&D, 402-ML), tumor growth factor-β (TGF-β, R&D 7666-MB), CPI-1205 or dimethyl sulfoxide (DMSO) and cultured for 6 days.
RNA sequencing. RNA was extracted from peripheral CD4 T cells isolated from patients with metastatic melanoma and from in vitro differentiated GFP^+ regulatory T cells. RNA sequencing reactions were performed by Active Motif (Carlsbad, Calif.) and Ocean Ridge Biosciences (Deerfield, Fla.) using an Illumina HiSeq 50-bp platform. For bioinformatics analysis, the raw reads were aligned to the mm10 reference genome using TopHat2. HTSeq count was used to count the raw reads that were uniquely mapped to each gene. DESeq2 was then applied to normalize the raw read counts and identify the differentially expressed genes between the groups. The beta-uniform mixture model was used to fit the p value distribution for multiple testing adjustments. The lists of differentially expressed genes were then used as input into Ingenuity Pathway Analysis for pathway analysis. RNA-sequencing data were deposited in the NCBI's Gene Expression Omnibus database.

[2] = patients, continuous daily dosing; cited from earlier work

With COc1cc(C)[nH]c(=O)c1CNC(=O)c1c(C)n([C@H](C)C2CCN(CC(F)(F)F)CC2)c2ccccc12 [CPI-1205, N-[(4-methoxy-6-methyl-2-oxo-1H-pyridin-3-yl)methyl]-2-methyl-1-[(1R)-1-[1-(2,2,2-trifluoroethyl)piperidin-4-yl]ethyl]indole-3-carboxamide] the survival (MB49 tumor) was “No significant difference”, the tumor growth (MB49 tumor) was “No significant difference” and the “pro-inflammatory pathways (Th-1/Th-2), Ingenuity Pathway Analysis” value ([1]; FIG. 5A) was “upregulation”. For the same compound, the BACH2 expression ([1]; FIG. 5B) was “decreased”, the FoxP3 expression ([1]; FIG. 5B) was “decreased” and the “effector cytokines and chemokines (differentially expressed genes)” value ([1]; FIG. 5B) was “increase”. For the same compound, the “neuropilin 1 (NRP1) expression” value ([1]; FIG. 5B) was “decreased”, the dose-limiting toxicities [2] was “no dose-limiting toxicities” and the tolerability [2] was “well tolerated”.
